Data on 49 compounds can be found in patent publication US9708247B2, “Modulators of the eIF2alpha pathway” (The Regents of the University of California, priority 2013, dated 2017).

Some results are limits rather than exact numbers.

One assay concerns ATF4 luciferase reporter. Kind of assay: ATF4 luciferase reporter assay (Cell-luc) in HEK293T cells. Type of assay: cell-based, human. The following applies: ATF4-luciferase reporter. The source says: FIGS. 1A-1C. […]
To identify inhibitors of PERK signaling, we engineered a reporter that allows monitoring of PERK activation in living cells. To this end, we constructed a retroviral vector containing the open-reading frame of firefly luciferase fused to the 5′UTR of ATF4 mRNA (FIG. 1A), which contains two short open-reading frames (uORFs) that control ATF4 translation in a stress-dependent manner. After infection, we established a HEK293T cell line harboring the stably integrated reporter. […] This format was used to screen 106,281 compounds covering a wide chemical space. We identified 460 hits (0.43%) (FIG. 1C), which were further validated in an 8-point dose-response assay using the same reporter. We further triaged the compounds by discarding inhibitors that also affected the IRE1 branch of the UPR using an XBP1-luciferase splicing reporter. […] We next used an orthogonal secondary screen that employed a different reporter (bi-cistronic ATF4-dGFPIRES-mCherry) stably integrated into a different cell line (U20S cells). The read-out of this latter screen was microscopy-based, which allowed us to simultaneously assess acute toxicity by cell counting, further reducing the number of viable hits to 77. As a tertiary screen, we tested compounds for their ability to inhibit ER stress-elicited induction of endogenous ATF4 by Western blot analysis. Twenty-eight compounds passed this test and were analyzed further.
ATF4 reporters were constructed by fusing the human full-length ATF4 5′-UTR (NCBI Accession BC022088.2) in front of the firefly luciferase (FLuc) or a destabilized eGFP (dEGFP) coding sequences lacking the initiator methionine.
The ATF4-FLuc reporter was generated by cloning a PCR-product containing the ATF4 full-length 5′-UTR (from +1 position a the transcription start site down to one nucleotide after the terminator codon of the second uORF) flanked by KpnI/XhoI and BglII sites at the 5′ and 3′ ends, respectively, into the KpnI-BglII sites of pCAX-F-XBP1-Luc. The resulting construct, pCAX-ATF4-FLuc, was then digested with BamHI, blunted with T4 DNA polymerase, and then digested with XhoI. The resulting fragment was then subcloned into the retroviral expression vector pLPCX (Clontech) after digesting it with HindIII, blunting with T4 DNA polymerase and then digesting with XhoI to generate pLPCX-ATF4-FLuc (DAA-312). DAA-312 was used to produce recombinant retroviruses using standard methods and the resulting viral supernatant was used to transduce HEK293T cells, which were then subsequently selected with puromycin to generate a stable cell line employed in the primary screen.
HEK293T cells carrying the ATF4 luciferase reporter were plated on poly-lysine coated 384 well plates (Greiner) at 30,000 cells per well. […] Luminescence was measured using One Glo (Promega) as specified by the manufacturer. […] Thus, these were considered unique to the PERK branch and were cherry-picked for further analysis.
For the compound `O=C(COc1ccc(Cl)cc1)N[C@H]1CC[C@H](NC(=O)COc2ccc(Cl)cc2)CC1` [Trans-ISRIB, 2-(4-Chlorophenoxy)-N-[(1r, 4r)-4-[2-(4-chlorophenoxy)acetamido]cyclohexyl]acetamide], the “potency of trans-ISRIB relative to cis-ISRIB” value is 100 fold.

The same assay, now with this note: ATF4 luciferase reporter, HEK293T cells; read-out: IC50 (nM) Cell-luc.
The term IC50 denotes the concentration needed to halve the response being measured. As to `O=C(COc1ccc(Cl)c([N+](=O)[O-])c1)N[C@H]1CC[C@H](NC(=O)COc2ccc(Cl)c([N+](=O)[O-])c2)CC1` [compound 957889], the IC50 came out at 11 nM.

Regarding `C#CCN(C(=O)COc1ccc(Cl)cc1)[C@H]1CC[C@H](NC(=O)COc2ccc(Cl)cc2)CC1` [755854.3], the IC50 turned out to be 100 nM. On the same count and under the same terms, with `C#CCN(C(=O)COc1ccc(Cl)cc1)[C@H]1CC[C@H](NC(=O)COc2ccc(Cl)cc2)CC1` [755854.4] the figure was 64 nM; with `N=C(COc1ccc(Cl)c(F)c1)N[C@H]1CC[C@H](NC(=O)COc2ccc(Cl)c(F)c2)CC1` [compound 957916], 122 nM. Same read-out and setting: with `O=C(COc1ccc([N+](=O)[O-])cc1)N[C@H]1CC[C@H](NC(=O)COc2ccc([N+](=O)[O-])cc2)CC1` [compound 757130] the figure was > 10000 nM; with `C#CCN(C(=O)COc1ccc(Cl)cc1)[C@H]1CC[C@H](NC(=O)COc2ccc(Cl)cc2)CC1` [755854.1], 2700 nM.

Still in this assay, the particulars now being: Homo sapiens, HEK-293T, ATF4 luciferase reporter, HEK293T cells; read-out: IC50 (nM) Cell-luc.
`O=C(COc1ccc(Cl)c(F)c1)N[C@H]1CC[C@H](NC(=O)COc2ccc(Cl)c(F)c2)CC1` [compound 957888]: the 50% inhibitory concentration (IC50) turned out to be 0.6 nM.

For `CC(=O)c1ccc(OCC(=O)N[C@H]2CC[C@H](NC(=O)COc3ccc(Cl)cc3)CC2)cc1` [compound 843983], the IC50 is > 10000 nM. Same read-out and setting: with `Clc1ccccc1CNC[C@H]1CC[C@H](CNCc2ccccc2Cl)CC1` [compound 874805] the figure was > 10000 nM.

Take `O=C(N[C@H]1CC[C@H](NC(=O)OCc2ccc(Cl)cc2)CC1)OCc1ccc(Cl)cc1` [compound 885257]: the IC50 was > 10000 nM. Consider `O=C(Cc1ccc(Cl)cc1)NCc1ccc(CNC(=O)Cc2ccc(Cl)cc2)cc1` [compound 885253], for which the 50% inhibitory concentration (IC50) was > 10000 nM. The same measure, in the same setting: for `O=C(COc1ccc(Cl)cc1)N[C@H]1CC[C@H](NC(=O)COc2ccc(Cl)cc2Cl)CC1` [compound 751594] the value was 69 nM.

In the case of `CC(=O)c1cc(OCC(=O)N[C@H]2CC[C@H](NC(=O)COc3ccc(Cl)cc3)CC2)ccc1Cl` [compound 912566], the IC50 is 149 nM. For the compound `C[S+]([O-])c1ccc(OCC(=O)N[C@H]2CC[C@H](NC(=O)COc3ccc([S+](C)[O-])cc3)CC2)cc1` (some centres unmarked) [compound 757096], the IC50 is > 10000 nM. The same measure, in the same setting: with `O=C(COc1ccc(Cl)cc1)N[C@H]1CC[C@H](NC(=O)COc2ccc(Cl)c(F)c2)CC1` [compound 874802] the figure was 2 nM.

Take `CC(C)c1ccc(OCC(=O)N[C@H]2CC[C@H](NC(=O)COc3ccc(Cl)cc3)CC2)cc1` [compound 874798]: the concentration for half-maximal inhibition (IC50) was determined as 200 nM. In the case of `O=C(COc1ccc(Cl)cc1)N[C@H]1CC[C@H](NC(=O)COc2cc(Cl)cc(Cl)c2)CC1` [compound 912565], the IC50 was > 10000 nM.

In the case of `C#Cc1cc(OCC(=O)N[C@H]2CC[C@H](NC(=O)COc3ccc(Cl)cc3)CC2)ccc1Cl` [compound 914584], the IC50 is 12 nM. The same measure, in the same setting: for `O=C(CCCC[C@H]1SC[C@@H]2NC(=O)N[C@@H]21)NCCCCCOC(=O)CCCCCn1cc(-c2ccc(OCC(=O)N[C@H]3CC[C@H](NC(=O)COc4ccc(Cl)cc4)CC3)cc2)nn1` [compound 916846] the value was 200 nM; for `CC(Oc1ccc(Cl)cc1)C(=O)N[C@H]1CC[C@H](NC(=O)COc2ccc(Cl)cc2)CC1` (some centres unmarked) [compound 874799], 210 nM.

`N#Cc1ccc(OCC(=O)N[C@H]2CC[C@H](NC(=O)COc3ccc(Cl)cc3)CC2)cc1` [compound 757259]: the IC50 was found to be 263 nM. Same read-out and setting: with `C#Cc1ccc(OCC(=O)N[C@H]2CC[C@H](NC(=O)COc3ccc(Cl)cc3)CC2)cc1` [compound 916353] the figure was 14 nM; with `O=C(COc1ccc(Cl)cc1)N[C@H]1CC[C@H](NC(=O)c2ccc(Cl)cc2)CC1` [compound 751596], > 10000 nM; with `O=C(COc1ccc(I)cc1)N[C@H]1CC[C@H](NC(=O)COc2ccc(I)cc2)CC1` [compound 916784], 51 nM. Regarding `O=C(COc1ccc(Cl)cc1)N[C@H]1C[C@H](NC(=O)CSc2ccc(F)cc2)C1` [compound 811772], the IC50 is > 10000 nM. On the same count and under the same terms, with `Cc1ccc(OCC(=O)N[C@H]2CC[C@H](NC(=O)COc3ccc(Cl)cc3)CC2)cc1` [compound 754128] the figure was 95 nM; with `O=C(COc1ccc(Cl)cc1)N[C@H]1C[C@@H](NC(=O)COc2ccc(Cl)cc2)C1` [compound 755856], 1000 nM.

For the compound `COc1ccc(OCC(=O)N[C@H]2CC[C@H](NC(=O)COc3ccc(OC)cc3)CC2)cc1` [compound 754123], the IC50 is > 10000 nM.

For `O=C(COc1ccc(Cl)cc1)N[C@H]1CC[C@H](NC(=O)C[S+]([O-])c2ccc(Cl)cc2)CC1` (some centres unmarked) [compound 757262], the 50% inhibitory concentration (IC50) is > 10000 nM. As for `O=C(COc1ccc(Cl)cc1)N[C@H]1CC[C@H](NC(=O)CS(=O)(=O)c2ccc(Cl)cc2)CC1` [compound 757263], the IC50 is > 10000 nM. `O=C(COc1ccc(Cl)cc1)N[C@H]1CC[C@H](NC(=O)COc2ccc(I)cc2)CC1` [compound 914989]: the IC50 was determined as 5.6 nM.

For the compound `O=C(COc1ccc(Cl)cc1)N[C@H]1CC[C@H](NC(=O)COc2ccc(Cl)c(C(F)(F)F)c2)CC1` [compound 874803], the IC50 amounted to 4 nM.

On to `C#C[C@]1(NC(=O)COc2ccc(Cl)cc2)CC[C@@H](NC(=O)COc2ccc(Cl)cc2)CC1` [compound 757132], for which the concentration for half-maximal inhibition (IC50) was 3000 nM.

In the case of `C[C@@H]1NC(=O)N[C@@H]1CCCCCC(=O)NCCOCCOCCOCCn1cc([C@]2(NC(=O)COc3ccc(Cl)cc3)CC[C@H](NC(=O)COc3ccc(Cl)cc3)CC2)nn1` [compound 873883], the IC50 amounted to 2600 nM. Still for that read-out and setting: with `Cc1ccc(CC(=O)N[C@H]2CC[C@H](NC(=O)COc3ccc(Cl)cc3)CC2)cc1` [compound 751595] the figure was > 10000 nM; with `O=C(COc1ccccc1)N[C@H]1CC[C@H](NC(=O)COc2ccc(Cl)cc2)CC1` [compound 751593], 384 nM; with `O=C(COc1ccc(Cl)cc1)N[C@H]1C[C@H](NC(=O)CSc2ccccc2)C1` [compound 811773], > 10000 nM. Same read-out and setting: with `O=C(COc1ccc(Cl)cc1)N[C@H]1CC[C@H](N(CCOc2ccc(Cl)cc2)CCOc2ccc(Cl)cc2)CC1` [compound 835196] the figure was 1400 nM; with `Cc1cc(OCC(=O)N[C@H]2CC[C@H](NC(=O)COc3ccc(Cl)cc3)CC2)ccc1Cl` [compound 874801], 2.4 nM; with `C#C[C@]1(NC(=O)COc2ccc(Cl)cc2)CC[C@H](NC(=O)COc2ccc(Cl)cc2)CC1` [compound 757149], 37 nM.

Turning to `C#Cc1ccc(OCC(=O)N[C@H]2CC[C@H](NC(=O)COc3ccc(Cl)c(C4(C(F)(F)F)N=N4)c3)CC2)cc1` [compound 955278], the IC50 was > 10000 nM. Same read-out and setting: with `O=C(COc1ccc(F)cc1)N[C@H]1CC[C@H](NC(=O)COc2ccc(F)cc2)CC1` [compound 757131] the figure was 270 nM; with `O=C(CCCC[C@H]1SCC2NC(=O)NC21)NCCCCCOC(=O)CCCCCn1cc(-c2cc(OCC(=O)N[C@H]3CC[C@H](NC(=O)COc4ccc(Cl)cc4)CC3)ccc2Cl)nn1` (some centres unmarked) [compound 916847], 900 nM; with `COc1ccc(OCC(=O)N[C@H]2CC[C@H](NC(=O)COc3ccc(Cl)cc3)CC2)cc1` [compound 751591], 250 nM. For `O=C(COc1ccc(Cl)cc1)N[C@H]1CC[C@H](NC(=O)COc2ccc(Cl)cc2C(=O)c2ccccc2)CC1` [compound 873973], the IC50 is > 10000 nM. The same measure, in the same setting: for `O=C(COc1ccc(F)cc1)N[C@H]1CC[C@H](NC(=O)COc2ccc(Cl)cc2)CC1` [compound 757257] the value was 48 nM.

Regarding `O=C(COc1ccc(Cl)cc1)N[C@H]1CC[C@H](NC(=O)COc2ccc(Cl)c(Cl)c2)CC1` [compound 874800], the concentration for half-maximal inhibition (IC50) amounted to 2 nM. Take `N=C(COc1ccc(Cl)c(Cl)c1)N[C@H]1CC[C@H](NC(=O)COc2ccc(Cl)c(Cl)c2)CC1` [compound 957914]: the IC50 was 40 nM.

The same assay, now with this note: cultured HEK293T cells; 2 μg/ml tunicamycin, 7 h; synthesized isomers; read-out: IC50, inhibition of the ATF4-luciferase reporter.
In the case of `O=C(COc1ccc(Cl)cc1)N[C@H]1CC[C@H](NC(=O)COc2ccc(Cl)cc2)CC1` [Trans-ISRIB, 2-(4-Chlorophenoxy)-N-[(1r, 4r)-4-[2-(4-chlorophenoxy)acetamido]cyclohexyl]acetamide], the 50% inhibitory concentration (IC50) was determined as 5 nM.
